Data on 14 compounds can be found in patent US9616037B2, “Aryl-phenyl-sulfonamido-cycloalkyl compounds and their use” (PIMCO 2664 Limited, priority 2008, dated 2017).

Data set [1] concerns J774 macrophages. Description: Alamar Blue macrophage J774 viability assay. Format: cell-based. The note with it: Mus musculus; J774 cells, 72 hours with compound, Alamar Blue readout; read-out: IC50. As to the method:
(§1) Initial screening of candidate compounds was performed using in vitro assays to determine potency, metabolic stability and solubility in biologically relevant fluids. Potency was assessed using a viability assay based on the survival of the J774 macrophage cell line. Macrophages are closely related to osteoclasts and have been used previously as a model system for osteoclast survival (see, e.g., Luckman et al., 1998). Like osteoclasts, J774 macrophages are dependent on continued NFκB activation for survival, thereby providing a valuable screen for compounds with anti-inflammatory activity. Metabolic stability was measured by determining the rate of disappearance of compound in the presence of human liver microsomal preparations, as quantified by LC-MS/MS. Solubility was measured by equilibration of the compound in fasted state simulated intestinal fluid (FaSSIF) and quantified by HPLC.
In vitro potency as anti-inflammatory agents was determined for a number of APSAC compounds by incubation with J774 macrophages and subsequent determination of cell viability.
J774 cells were plated at 10^4 cells per well in 100 μL αMEM (α Modified Eagle Medium) in 96-well plates and grown overnight. The next day, test compounds were added to the cultures, and cultures were continued for another 72 hours. At the end of the culture period, cell survival was determined using an Alamar Blue assay as previously described (see, e.g., Nociari et al., 1998).
Alamar Blue is an oxidation-reduction sensitive indicator. The dye itself is in the oxidised state, which is blue and non-fluorescent. The dye can accept electrons from reducing species, such as NADPH and FADH, to form a reduced dye species, which is red and fluorescent. Thus the transformation from oxidised form to reduced form can be measured by fluorimetric or colourimetric means. For fluorescence measurements, 530-560 nm excitation and 590 nm emission wavelengths are typically used. For colourimetric measurements, absorbance at 570 nm (reduced form) and 600 nm (oxidised form) is typically measured. A simple calculation is performed to determine the relative quantities of the two species.
A high ratio of the reducing species, NADPH and FADH, to the corresponding oxidised species, NADP and FAD, is an indicator that cells are proliferating and viable. A low ratio indicates cells that are quiescent or non-viable.
Briefly, Alamar Blue (Biosource International) was added undiluted to the each well (1:10 v/v, 10 μL). The plate was incubated at 37° C. for 3-4 hours and the fluorescence was measured at 590 nm, with a 25 nm bandwidth. A high reading indicated cells with normal viability, and a low reading indicated cells that have been damaged and are no longer proliferating normally. The controls gave a high fluorescence reading, indicating a high number of live, healthy cells. A potent test compound gave a low fluorescence reading. The average results for each test compound (n=5) were expressed as a percent (%) of the average control value.
Addition of Compounds. All of the compounds studied were made up as 100 mM solutions in DMSO. These stock solutions were then diluted 1000-10000× in culture medium (αMEM). From these 100 μM or 10 μM solutions, convenient quantities (3-33 μL) were added directly to the wells so as to give the desired final compound concentration.

A short description of data set [2]: Human liver microsomal stability assay. The data set is classed as in vitro ADME. The note with it: pooled human liver microsomes 0.5 mg/mL, 3 μM compound, NADPH, 45 minute incubation; for half-life at 3 µM: both sexes, pH 7.4. As to the method: as §1, with “Macrophages are closely related to osteoclasts and have been used previously as a model system for osteoclast survival (see, e.g., Luckman et al., 1998).” left out
Metabolic stability of APSAC derivatives was measured by determination of the rate of compound disappearance when incubated in the presence of human liver microsomes. Liver microsomes are prepared from the endoplasmic reticulum of hepatocytes and are the primary source of the most important enzymes (cytochrome P450) involved in drug metabolism. Study of drug stability in the presence of liver microsomes is accepted as a valuable model permitting rapid prediction of in vivo drug stability.
Human liver microsomes were obtained from a commercial source. Test compounds (3 μM) were incubated with pooled liver microsomes (male and female). Samples were incubated for a 45 minute period and removed at 5 time points and test compounds were analysed by LC-MS/MS.
The final incubation volume was 25 μL. A control incubation was included for each compound tested, where 0.1 M phosphate buffer pH 7.4 was added instead of NADPH. The control compounds testosterone and 7-hydroxycoumarin were included in each experiment and all incubations were performed singularly for each compound.
Each compound was incubated for 0, 5, 15, 30, and 45 minutes. The control (minus NADPH) was incubated for 45 minutes only. […] The incubation plates were centrifuged at 2500 rpm for 20 minutes at 4° C. to precipitate the protein.
Following protein precipitation, the sample supernatants were combined in cassettes of up to 4 compounds and analysed using standard LC-MS/MS conditions.
From a plot of the natural logarithm of the peak area ratio (i.e., the ratio of compound peak area:internal standard peak area) against time, the gradient of the line was determined. Subsequently, half-life and intrinsic clearance were calculated using the equations below: Eliminated rate constant (k)=(−gradient). […] Pharmacokinetics Studies

A short description of data set [3]: Thermodynamic aqueous solubility in fasted state simulated intestinal fluid (FaSSIF). The note with it: pH 6.5, thermodynamic from solid, equilibrated at 25° C. for 24 hours, HPLC. The data set is classed as physicochemical. As to the method:
as §1, with “Macrophages are closely related to osteoclasts and have been used previously as a model system for osteoclast survival (see, e.g., Luckman et al., 1998).” left out
Thermodynamic aqueous solubility was measured by equilibration of a number of APSAC compounds, in the solid state, with fasted state simulated intestinal fluid (FaSSIF) and quantified by HPLC. Measurement of solubility in FaSSIF provides a valuable model for the prediction of drug dissolution following oral administration.
The pH was adjusted to 6.5 using 1 M NaOH solution.
0.6 mL of a solution containing 100 mg/mL lecithin in methylene chloride was added. The methylene chloride was eliminated under vacuum at about 40° C. The vacuum was drawn for 15 minutes at 250 mbar, followed by 15 minutes at 100 mbar. […] After cooling to room temperature, the solution was then adjusted to 100 mL with blank FaSSIF.
The suspension was equilibrated at 25° C. for 24 hours, and then the pH was measured. The suspension was then filtered through a glass fibre C filter into a 96-well plate. The filtrate was then diluted by a factor of 100. Quantification was made by HPLC with reference to a standard solution of compound at approximately 0.1 mg/mL in DMSO. Different volumes of the standard, diluted and undiluted sample solutions were injected. […] Analysis was performed on an Agilent HP1100 series system equipped with a diode array detector and using ChemStation software vB.02.01-SR1.

In brackets after ≈: the same amount, converted by molar mass. Bounds are passed on as bounds.

Usually IC50 stands for the point on the concentration scale where inhibition reaches its midpoint. For orientation: half-life means how long it takes for the measured level to halve. A higher half-life goes with slow loss. The solubility is the concentration that dissolves in the medium under given conditions.

On to `O=S(=O)(N[C@H]1CC[C@H](O)CC1)c1ccc(-c2ccc(Cl)cc2F)cc1` [ABD655, 4′-Chloro,2′-fluoro-N-(trans-4-hydroxycyclohexyl)biphenyl-4-sulfonamide], for which the IC50 in data set [1] came to 180 nM. Also, in data set [2], the half-life at 3 µM was 228 min. The solubility at 24 h in data set [3] is 30 µg/mL (≈ 78.2 µM).

As for `CN(C)[C@H]1CC[C@@H](NS(=O)(=O)c2ccc(-c3ccc(F)cc3F)cc2)CC1` [ABD798, N-(cis-4-(Dimethylamino)cyclohexyl)-2′,4′-difluorobiphenyl-4-sulfonamide], the IC50 in data set [1] came out at 600 nM. The T1/2 entry in data set [2] is reported as “Stable”. This compound showed a solubility at 24 h in data set [3] of 4700 µg/mL (≈ 11900 µM).

Take `O=C1CCC(NS(=O)(=O)c2ccc(-c3ccc(F)cc3F)cc2)CC1` [ABD786, 2′,4′-Difluoro-N-(4-oxocyclohexyl)biphenyl-4-sulfonamide]: the 50% inhibitory concentration (IC50) in data set [1] worked out at 280 nM. The compound also returned a half-life at 3 µM in data set [2] of 12 min. This compound also returned a solubility at 24 h in data set [3] of 32 µg/mL (≈ 87.6 µM).

For the compound `CC(C)(O)[C@@H]1CC[C@H](NS(=O)(=O)c2ccc(-c3ccc(F)cc3F)cc2)C1` [ABD796, 2′,4′-Difluoro-N-((1S,3R)-3-(2-hydroxypropan-2-yl)cyclopentyl)biphenyl-4-sulfonamide], the IC50 in data set [1] was less than 300 nM. In data set [2], the half-life at 3 µM is 54 min. The compound also yielded a solubility at 24 h in data set [3] of 200 µg/mL (≈ 506 µM).

Consider `CC(C)(O)[C@H]1CC[C@@H](NS(=O)(=O)c2ccc(-c3ccc(F)cc3F)cc2)CC1` [ABD795, 2′,4′-Difluoro-N-(cis-4-(2-hydroxypropan-2-yl)cyclohexyl)biphenyl-4-sulfonamide], for which, in data set [1], the IC50 worked out at 2700 nM. The half-life at 3 µM in data set [2] turned out to be 15 min. Also, the solubility at 24 h in data set [3] is 50 µg/mL (≈ 122 µM).

For the compound `O=S(=O)(N[C@@H]1CCC[C@@H]1CO)c1ccc(-c2ccc(F)cc2F)cc1` (relative stereo) [ABD769, 2′,4′-Difluoro-N-(cis-2-(hydroxymethyl)cyclopentyl)biphenyl-4-sulfonamide], in data set [1], the IC50 was found to be 4590 nM. The compound further came in with a half-life at 3 µM in data set [2] of 42 min. The compound further came in with a solubility at 24 h in data set [3] of 70 µg/mL (≈ 191 µM).

For `CC(C)(O)[C@H]1CC[C@H](NS(=O)(=O)c2ccc(-c3ccc(F)cc3F)cc2)C1` [ABD815, 2′,4′-Difluoro-N-((1S,3S)-3-(2-hydroxypropan-2yl)cyclopentyl) biphenyl-4-sulfonamide], the IC50 in data set [1] was less than 300 nM. This compound gave a half-life at 3 µM in data set [2] of 13.2 min. Besides, the solubility at 24 h in data set [3] is 250 µg/mL (≈ 632 µM).

`O=S(=O)(NC1CCC(CO)CC1)c1ccc(-c2ccc(F)cc2F)cc1` (stereo not drawn) [ABD776, 2′,4′-Difluoro-N-(4-(trans-hydroxymethyl)cyclohexyl)biphenyl-4-sulfonamide]: the IC50 in data set [1] is 800 nM. Also, the half-life at 3 µM in data set [2] was 137 min. This compound yielded a solubility at 24 h in data set [3] of 82 µg/mL (≈ 215 µM).

As for `CC(C)(O)[C@H]1CC[C@H](NS(=O)(=O)c2ccc(-c3ccc(F)cc3F)cc2)CC1` [ABD794, 2′,4′-Difluoro-N-(trans-4-(2-hydroxypropan-2-yl)cyclohexyl)biphenyl-4-sulfonamide], the IC50 in data set [1] was found to be 2100 nM. Besides, the T1/2 result in data set [2] is “Stable”. The same compound gave a solubility at 24 h in data set [3] of 12 µg/mL (≈ 29.3 µM).

Regarding `NC1CCC(NS(=O)(=O)c2ccc(-c3ccc(F)cc3F)cc2)CC1` (stereo not drawn) [ABD787], the IC50 in data set [1] is 3550 nM. The T1/2 entry in data set [2] is given as “Stable”. The same compound yielded a solubility at 24 h in data set [3] of 140 µg/mL (≈ 382 µM).

As for `O=S(=O)(N[C@H]1CC[C@H](CO)C1)c1ccc(-c2ccc(F)cc2F)cc1` [ABD813, 2′,4′-Difluoro-N-((1S,3S)-3-(hydroxymethyl)cyclopentyl)biphenyl-4-sulfonamide], the concentration for half-maximal inhibition (IC50) in data set [1] stood at 570 nM. Also, in data set [2], the half-life at 3 µM was 45.4 min. This compound returned a solubility at 24 h in data set [3] of 330 µg/mL (≈ 898 µM).

Regarding `CN(C)[C@H]1CC[C@H](NS(=O)(=O)c2ccc(-c3ccc(F)cc3F)cc2)CC1` [ABD799, N-(trans-4-(Dimethylamino)cyclohexyl)-2′,4′-difluorobiphenyl-4-sulfonamide], the IC50 in data set [1] turned out to be 400 nM. In addition, the T1/2 entry in data set [2] was “Stable”. For the same compound, the solubility at 24 h in data set [3] is 7200 µg/mL (≈ 18300 µM).

For the compound `O=S(=O)(N[C@H]1CC[C@@H](O)CC1)c1ccc(-c2ccc(F)cc2F)cc1` [ABD777, 2′,4′-Difluoro-N-(cis-4-hydroxycyclohexyl)biphenyl-4-sulfonamide], the IC50 in data set [1] was found to be 1900 nM. Moreover, the half-life at 3 µM in data set [2] is 69 min. For the same compound, the concentration in solution in data set [3] (solubility at 24 h) was 60 µg/mL (≈ 163 µM).

With `N[C@H]1CC[C@@H](NS(=O)(=O)c2ccc(-c3ccc(F)cc3F)cc2)CC1` [ABD812, N-(cis-4-Aminocyclohexyl)-2′,4′-difluorobiphenyl-4-sulfonamide], the IC50 in data set [1] amounted to 7600 nM. In data set [2], this compound returned a half-life at 3 µM of 585 min. This compound returned a solubility at 24 h in data set [3] of 980 µg/mL (≈ 2670 µM).
